# Laboratory results: US4552888A, “Ascorbic acid ethers in angiogene” (Eli Lilly and Company, priority 1983, dated 1985)
# Where two headings read alike, the source gives them in different places.
# What was measured:
# [1] = tested on: paw swelling caused by Type II collagen; test: Collagen arthritis assay (type II collagen-induced paw swelling); type: in vivo, inbred Lewis male rats; conditions: for decrease in paw swelling caused by collagen Type II injection: 15 mg./kg. per os
# Experimental: This test method is a collagen arthritis assay carried out as follows. Type II collagen is isolated from bovine articular cartilage by the method of […] and Nimni [Biochemistry, 10, 3905, (1971)]. The collagen is dissolved in 0.1M acetic acid and stored at -20°. Type II collagen solution is diluted to 2 mg./ml. concentration and emulsified thoroughly with an equal volume of incomplete Freund's adjuvant (ICFA). The emulsion containing approximately 0.5 mg. of collagen is injected intradermally to groups of 6 inbred Lewis male rats (Charles River Breeders; 170-200 g.) at various sites in the dorsal area. The hindpaw volumes of each rat is measured and recorded three times a week throughout the test period to assess the inflammatory reaction. The animals receive compounds under test as suspensions in carboxymethylcellulose vehicle, by oral gavage, 5 days per week (Mon.-Fri.). At the end of the test (day 28 or 30), the blood of these animals is drawn by cardiac puncture and the serum anti-type II collagen antibody levels are estimated by passive hemagglutination technique, using glutaraldehyde treated sheep red cells, to which type II collagen is conjugated [[…] et al., Immunochemistry, 6, 67,1969); Andriopoulos et al., Arth. Rheum., 19, 613, (1976)]. The cellular response or delayed-type hypersensitivity response to type II collagen is measured by the radiometric ear index assay (Kostiala, Immunology, 33, 561, 1977). In certain experiments, the bone damage occurring because of immunization with type II collagen and the effects of drugs are determined from the radiographs of the hindpaws of two or three representative animals from each group. Injections of ICFAs alone were employed to some rats as a negative control.
# pKa by titration = type: physicochemical; conditions: for pKa: read-out: pKa
# angiogenesis factor = test: Inhibition of angiogenesis factor (3683 Morris hepatoma lysosomal-mitochondrial pellet) induced serpentine vessels in mice; type: in vivo, mice (SPF/ND4 female); conditions: Mus musculus, ip; for inhibition in vivo at 25 mg/kg: i.p., 24 hours
# Experimental: Lysosomal-mitochondrial pellets containing angiogenesis factor are prepared from 3683 Morris hepatoma. The pellet is diluted with 7-8 ml. of 15% ficoll. With this dilution, 8-10 serpentine vessels will be produced per 0.2 cc. injection as described below for the control group.
# Next, 15 SPF/ND4 female mice weighing 20-22 g. are shaved on the left side and then divided into three groups of five each. One group (drug group) is injected subcutaneously and laterally with 0.20 cc. of the lysosomal-mitochondrial preparation diluted with 15% ficoll. This group of mice is then dosed individually by the intraperitoneal route with 0.5 cc. of a solution or suspension in a standard vehicle containing the compound under test, usually at an initial dose level of 300 mg./kg. If this dose level is toxic, two-fold dilutions are made until all mice survive a single dose. The second group of mice (control group) is injected subcutaneously and laterally with 0.2 cc. of the lysosomal-mitochondrial suspension diluted with 15% ficoll and dosed intraperitoneally with 0.5 cc. of the vehicle alone. The third group (negative control) is injected with ficoll solution only (no treatment with drug or vehicle). The mice are sacrificed after 24 hours. Each mouse is placed on its side on a dissecting board with the shaved side up. Starting at the flank, the skin is cut straight to the back of the animal. A similar cut is made behind the front leg. Then the skin is cut along the back making a flap of about one inch by two inches. The skin is carefully separated from the connective tissue using forceps and a scalpel. The skin flap is then laid back exposing the lysosomal-mitochondrial implant which is attached to the skin. The skin flap is gently flattened out and with the use of a binocular dissecting scope, serpentine vessels are observed around the lysosomal-mitochondrial implant and their number counted. All observations of the number of serpentine vessels are made at the same power of the microscope (1X). The average number of serpentine vessels for each group is calculated. The percent inhibition is then calculated according to the following equation. [formula] where sv=average number of serpentine vessels.
# If the negative control group described above has any serpentine vessels, the test is invalid due to contamination of the ficoll solution.
# Table I covers compounds according to formula I above in which R^2 and R^3 are both H, table II covers compounds in which R^2 and R^3 form a 1-methylethylidene group, and Table III compounds in which R^2 plus R^3 equal a benzylidene group or other group.
# One of the compounds of this invention, 3-O-n-octadecyl-5,6-O-(1-methylethylidene)-L-ascorbic acid was tested at a series of dose levels for its ability to inhibit tumor angiogenesis and the results of these tests are set forth in Table IV.
# Vitamin C activity = conditions: orally in aqueous solution; Bezssonoff and Sacrez 1937; cited from earlier work
# [2] = tested on: Madison (M109) lung carcinoma; test: Madison lung metastasis assay; type: in vivo, male BALB/C mice
# Experimental: In addition, the compounds of this invention have found utility as angiogenesis inhibitors in metastatis formation. Such activity has been found in an artificial metastasis model using Madison lung (M 109) carcinoma which metastasizes preferentially to lungs and is not overly sensitive to chemotherapeutic agents. The test is carried out as follows.
# The Madison (M109) lung carcinoma is carried as a transplantable line in syngeneic BALB/C mice. This tumor line was obtained from the tumor bank at Mason Research Institute, Worcester, Mass. For tumor metastasis studies, a subcutaneously-grown tumor is aseptically excised, minced into small pieces with a scissors, and gently trypsinized at room temperature to obtain a single cell suspension. The cells are suspended in RPMI-1640 medium (M. A. Bioproducts, Walkersville, MD). Viable M109 cells are determined by trypan blue exclusion, and the cell concentration is determined with a hemocytometer. The cells are adjusted to 1×10^5 viable cells/ml. of medium. M109 cells are injected i.v. into normal, male BALB/C mice. Inoculum volume per mouse is 0.2 ml. (2×10^4 cells). Drugs are administered i.p. to randomized groups of 10 mice 2 days prior to tumor cell inoculation. Controls receive mock injections of 0.5 ml. buffer. Daily mortality is monitored, and median survival times are determined for each group. Cytoxan was employed as a positive control. In the Table, column 1 gives drug treatment and columns 2 and 3 measures number of lesions±standard error per lung on days 30 and 42.
# The growth rate and number of lung metastases in the above experiment were less than usual. A new transplant line was employed in a second determination with lung lesions developing earlier. Table 6 records the results of this experiment; here ascorbic acid was employed as the control drug.
# Morris hepatoma (5123D) = test: Growth/induction of transplanted Morris hepatoma (5123D) in ICFA-treated rats; type: in vivo; conditions: 10-100 mg. once or twice a day orally
# Experimental: Another laboratory test involving angiogenesis or neovascularization is based on the time period required for a differentiated tumor to become undifferentiated (vascularized). An inflammatory response enhances tumor growth and reduces the lag phase. In this test, rats are injected with a test drug (30 minutes prior to dosing) with ICFA (incomplete Freund's adjuvant) plus India ink intradermally in a shaved area on a rat's back, thus providing a marked injection site. After 3 days of twice daily administration of the test drug followed 30 minutes later by administration of ICFA, the tumor is transplanted on the periphery of the marked injection site. The animals are weighed and the tumor size determined (length+width/2) at weekly intervals for 4 weeks. Morris hepatoma (5123D) was used as the […] tumor.
# 0.5 cc. of ICFA were also given once or twice daily subcutaneously to each test rat.
# [3] = tested on: proline hydroxylation in scorbutic granulomas; conditions: in vitro; Rokosova and Chvapil 1974; cited from earlier work
# scorbutic guinea pigs = conditions: added to the diet of scorbutic guinea pigs; Gould et al. 1949; cited from earlier work
# [4] = tested on: lung metastases and B16 melanoma; conditions: mice; Folkman and Taylor; cited from earlier work
# [5] = oral 50 mg./kg., one experiment
# [6] = Table 6, 16 day, new transplant line, 100 mg./kg., Emulphor control 69.8 ± 10.4
compound,measurement,setting,value
"CC1(C)OC[C@@H]([C@H]2OC(=O)C(OCc3ccc(C#N)cc3)=C2OCc2ccc(C#N)cc2)O1 [2,3-bis(O-4-cyanobenzyl)-5,6-O-(1-methylethylidene)-L-ascorbic acid]",decrease in paw swelling caused by collagen Type II injection,[1],substantial decreases in paw swelling
same,titratable group,pKa by titration,No titratable groups
same,inhibition in vivo at 25 mg/kg,"angiogenesis factor; 24 h, Table 2, read-out: % inhibition (serpentine vessels)",36 to 91%
"CCCCCCCCCCCCCCCCCCOC1=C(OCCCCCCCCCCCCCCCCCC)[C@@H]([C@@H](O)CO)OC1=O [2,3-di-(-O-n-octadecyl)-L-ascorbic acid]",decrease of paw volumes,[1]; 12.5 and 25 mg./kg.,33-67%
same,inhibition in vivo at 25 mg/kg,"angiogenesis factor; 24 h, Table 1, read-out: average % inhibition (serpentine vessels)",52%
"COC1=C(OC)C(C(O)CO)OC1=O (centres unmarked) [2,3-dimethylascorbic acid]",Vitamin C activity,Vitamin C activity,devoid of Vitamin C activity
O=C1O[C@H]([C@@H](O)CO)C(OCc2cccc(C(F)(F)F)c2)=C1O [3-O-(3-trifluoromethylbenzyl)-L-ascorbic acid],paw volumes vs ICFA controls,[1]; 25 mg./kg.,substantially the same as ICFA controls
"CC1(C)OC[C@@H]([C@H]2OC(=O)C(O)=C2OCCCCC#N)O1 [3-O-(4-cyanobutyl)-5,6-O-(1-methylethylidene)-L-ascorbic acid]",decrease in paw swelling caused by collagen Type II injection,[1],substantial decreases in paw swelling
same,pKa,pKa by titration,10.4
CCCCCCCCCCCCCCCCCOC1=C(O)C(=O)O[C@@H]1[C@@H](O)CO [3-O-n-heptadecyl-L-ascorbic acid],decrease in paw swelling caused by collagen Type II injection,[1],substantial decreases in paw swelling
"CCCCCCCCCCCCCCCCCCOC1=C(O)C(=O)O[C@@H]1[C@@H]1COC(C)(C)O1 [3-O-n-octadecyl-5,6-O-(1-methylethylidene)-L-ascorbic acid]",paw volumes vs negative control levels,"[1]; 50 mg./kg., other runs",indistinguishable from negative control levels
same,inhibition of the swelling of the paw,[1]; [5],about 50%
same,pKa,pKa by titration,11.4
same,inhibition in vivo at 30 mg/kg,"angiogenesis factor; Table 4, intraperitoneal dose 30 mg./kg., individual results",58%
same,inhibition in vivo at 120 mg/kg,"angiogenesis factor; Table 4, intraperitoneal dose 120 mg./kg., individual results",66%
same,inhibition in vivo at 240 mg/kg,"angiogenesis factor; Table 4, intraperitoneal dose 240 mg./kg., individual results",71%
CCCCCCCCCCCCCCCCCCOC1=C(O)C(=O)O[C@@H]1[C@@H](O)CO [3-O-n-octadecyl-L-ascorbic acid],decrease of paw volumes,[1]; 12.5 mg./kg.,about 25%
same,paw volumes vs controls,[1]; 17.5 mg./kg.,indistinguishable from controls
same,"decrease of paw volume vs positive controls (collagen, no drug)","[1]; 50 mg./kg., other runs",90-100%
same,paw volumes vs ICFA-treated rats (negative controls),[1]; [5],not substantially different from those of the ICFA-treated rats
same,Mean No. of Lesions ± S.E./Lung,"[2]; Table 5, Day 30, 35 mg./kg. i.p., Emulphor control 15.8 ± 4.6",1.8 ± 1.2 Lesions/Lung
same,Mean No. of Lesions ± S.E./Lung,"[2]; Table 5, Day 42, 35 mg./kg. i.p., Emulphor control 20.6 ± 1.8",18.6 ± 1.3 Lesions/Lung
same,Mean No. of Lesions ± S.E./Lung,"[2]; Table 6, 16 day, new transplant line, 30 mg./kg., Emulphor control 69.8 ± 10.4",10.7 ± 3.4 Lesions/Lung
same,Mean No. of Lesions ± S.E./Lung,[2]; [6],13.0 ± 5.1 Lesions/Lung
same,growth of the undifferentiated tumor,Morris hepatoma (5123D); alternative outcome to delayed induction,inhibited the growth of the undifferentiated tumor
same,delay of tumor induction,Morris hepatoma (5123D); alternative outcome to growth inhibition,4 to 7 days
COC1=C(O)C(=O)O[C@@H]1[C@@H](O)CO [3-methylascorbic acid],stimulation of proline hydroxylation,[3],had an effect in vitro
same,Vitamin C activity,Vitamin C activity,active
same,vitamin C activity relative to ascorbic acid,scorbutic guinea pigs,about 1/50
"CC1(C)OC[C@@H]([C@H]2OC(=O)C(O)=C2O)O1 [5,6-O-(1-methylethylidene)-L-ascorbic acid]",pKa,pKa by titration,6.1
same,inhibition in vivo at 10 mg/kg,"angiogenesis factor; 24 h, Table 2, dose 10 mg./kg.",48%
"CCCCCCCCCCC1(C)OC[C@@H]([C@H]2OC(=O)C(O)=C2O)O1 (stereo partly drawn) [5,6-O-(1-n-decylethylidene)-L-ascorbic acid]",decrease in paw swelling caused by collagen Type II injection,[1],substantial decreases in paw swelling
"O=P1(N(CCCl)CCCl)NCCCO1 (centres unmarked) [Cytoxan, reference compound]",Mean No. of Lesions ± S.E./Lung,"[2]; Table 5, Day 30, 30 mg./kg. i.p. every 4th day starting on day 12, Emulphor control 15.8 ± 4.6",8.4 ± 1.5 Lesions/Lung
O=C1O[C@H]([C@@H](O)CO)C(O)=C1O [ascorbic acid],Mean No. of Lesions ± S.E./Lung,[2]; [6],33.8 ± 9.6 Lesions/Lung
protamine,inhibition of lung metastases and B16 melanoma,[4],inhibited lung metastases and B16 melanoma in mice
